Laboratory results from PubChem BioAssay (NCI).
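Dose response: 5 concentrations. Exposure: 48 h. Format: 96-well plates. Endpoint: linear interpolation; highest concentration if not reached. GI50: concentration for 50% inhibition of growth. TGI is the concentration that stops growth completely.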

Columns and labels:
Assay in all cases: inhibition of tumour cell growth, NCI panel, 48 h
[1] = system: RPMI-8226 leukemia
[2] = system: HCT-15 colon
[3] = system: NCI/ADR-RES ovarian
[4] = system: NCI-H23 lung
[5] = system: SK-MEL-2 melanoma
[6] = system: OVCAR-3 ovarian
[7] = system: ACHN renal
[8] = system: SN12C renal
[9] = system: KM12 colon
[10] = system: MOLT-4 leukemia

SMILES	TGI [1] [µM]	TGI [2] [µM]	TGI [3] [µM]	TGI [4] [µM]	TGI [5] [µM]	TGI [6] [µM]	TGI [7] [µM]	TGI [8] [µM]	TGI [9] [µM]	TGI [10] [µM]	GI50 [1] [µM]	GI50 [2] [µM]	GI50 [5] [µM]	GI50 [6] [µM]	GI50 [7] [µM]	GI50 [8] [µM]	GI50 [9] [µM]	GI50 [10] [µM]	GI50 [3] [µM]	GI50 [4] [µM]
Nc1nc(-c2ccccc2)nc2c1[n+]([O-])c1ccccc1[n+]2[O-]	> 100	> 100	> 100	> 100	> 100	> 100	> 100	> 100	> 100											
COC(=O)CCCC(=O)O		> 100	> 100	> 100	> 100	> 100	> 100	> 100	> 100	> 100										
CS(=O)(=O)N(N(CCCl)S(=O)(=O)c1ccccc1)S(C)(=O)=O	> 100	> 100		> 100	> 100	> 100	> 100	> 100	> 100	> 100										
O=[N+]([O-])c1cccc(C2ON2C2CCCCC2)c1 (stereo not given)	7.98	30.7		45.1	62.8	34.6	32	36	21	64.7										
C1=CC=C2NCCCNC3=CC=CC=CC3=NCCCN=C2C=C1	> 100	> 100			> 100	> 100	> 100	> 100	> 100	> 100										
O=C(Nc1ccccc1)NS(=O)(=O)c1ccc(-n2nc3c(c2-c2ccc(Cl)cc2)Cc2ccccc2-3)cc1	48.9	69.7			91.8	54.2	71.8	66.6	55.1	42.4	16.5	18.5	27.4	18.3	12.9	23.2	16	7.05		
O=C(CC1(O)C(=O)Nc2c(Cl)cc(Cl)cc21)c1cccc2ccccc12 (stereo not given)	47.4	31		32.8	32.6	30	30.8	34	31.5	66.9										
O=C(Cc1nc2ccccc2s1)Nc1cccc(C(F)(F)F)c1	28.7	30.3		30.2	33.8	31.8	28.2	29.7	30.5	25.8										
O=[N+]([O-])c1cccc(-c2oc(C=Nc3ccccc3)c([N+](=O)[O-])c2-c2cccc([N+](=O)[O-])c2)c1	> 100			> 100	> 100	> 100	> 100		> 100	> 100										
CCCCS(=O)(=O)CCC(N)C(=O)O (stereo not given)		> 100	> 100	> 100	> 100	> 100	> 100	> 100	> 100	> 100										
CCC(=O)c1c(NOC2OC(COC(C)=O)C(OC(C)=O)C(OC(C)=O)C2OC(C)=O)nc(OC)n(C)c1=O (stereo not given)		> 100		> 100	> 100		> 100	> 100	> 100	> 100										
CC(C)CCN=C(N)c1ccc(N2CCN(c3ccc(C(N)=NCCC(C)C)cc3)CC2)cc1		> 100	> 100	17.8	> 100	44.8	> 100	42.7	16.6	53.6		37.6	9.37	11.3	56.8	7.52	3.82	14.6	61.4	3.75
C=C1CCC2C(C)(C)CCC[C@]2(C)[C@H]1CO (stereo not given in full)		> 100	> 100	> 100	> 100	> 100	> 100	39.5	> 100	> 100		56.9	> 100	> 100	97.9	19.8	87.7	73.2	60.3	46.1
COC1OC(COCc2ccc(Cl)cc2)C(OCc2ccc(Cl)cc2)C1N=[N+]=[N-] (stereo not given)	> 100	> 100		> 100	> 100	> 100	> 100	> 100	> 100	> 100										
CC1(C)Cc2cc(C(=O)O)c3c(c2C1=O)COCC3	> 100	> 100		> 100	> 100	> 100	> 100	> 100	> 100	> 100										
Cc1cccc2c(=O)c3c(sc12)c(NCCNCCO)nc1ccccc13	3.88	2.89		3.04	3.44	2.99	2.83	3.05	3.19	3.21	1.81	1.46	1.78	1.55	1.5	1.54	1.64	1.53		1.58
C=C1CC/C=C(\C)C(=O)C[C@@H]2[C@@H]1CC2(C)C	> 100	3.23	46.6	15.4	43.8	20.7	8.67	13	39.1											
Cc1c(COc2cc(OCc3cccc(C#N)c3)c(CN3C[C@H](O)C[C@@H]3C(=O)O)cc2Cl)cccc1-c1ccc2c(c1)OCCO2		26.7	> 100	31	41.3		31	29.5	30.3			13.7	18.8		17.2	15.7	16.1		47.5	16.9
O=C(CCC(=O)C(C(=O)c1ccccc1)c1ccccc1)Nc1cccc(C(F)(F)F)c1 (stereo not given)	> 100	> 100		> 100	> 100	> 100	> 100	> 100	> 100	> 100										
